Where two headings read alike, the source gives them in different places.
Experiments:
[1] = molecular target: T1, HIV-1 protease (Human immunodeficiency virus type 1 group M subtype B, UniProt P04585, Q495S); assay: HIV-1 Protease RET assay (Ki, resonance energy transfer); format: biochemical; conditions: Q7S mutant HIV-1 protease
T1 construct: made in house
Method: Ki's for the inhibitors of HIV-1 protease were determined using a resonance energy transfer (RET) assay. […] This enzyme is first partially purified as inclusion bodies from cell lysate. It is then solublized in 8M urea and passed through a Q-Sepharose column (Pharmacia) for further purification. To refold this protein, samples containing Q7S is dialyzed into 50 mM sodium phosphate pH 7.0, 50 mM NaCl, 10 mM DTT, and 10% glycerol.
The commercially available peptide substrate (Molecular Probes Cat. # H-2930) RE(EDANS)SQNYPIVQK(DABCYL)R is used to assess activity and Ki's. This peptide is cleaved quantitatively by HIV-1 Pr at the Tyr-Pro bond. The EDANS fluorophore absorbs at 340 nm and emits at 490 nm. The reaction is carried out in a 96 well plate in a total volume of 100 µL and is run for 12 minutes at 37C under steady-state conditions with 5 µM substrate and 2 nM active dimer enzyme concentration. The literature value Km for this substrate and enzyme is 103+/−8 μM (See Matayoshi, et al., “Novel Fluorogenic Substrates for Assaying Retroviral Proteases by Resonance Energy Transfer,” Science 247, 954 (1990)). The buffer for this reaction is 0.1M sodium acetate pH 4.8, 1M NaCl, 1 mM EDTA, 5 mM dithiothreitol, 10% dimethyl sulfoxide and 1 mg/ml bovine serum albumin. Inhibition curves are fit using the Morrison tight binding equation.

[2] = tested on: HIV-1; assay: Antiviral EC50 in HIV-infected T-cell lines (CPE inhibition / susceptibility assays); format: cell-based
Method: T-cell lines, CEM-SS, and MT-2, and viruses HIV-1 RF and HIV-1 NL4-3 (pNL4-3) were obtained from the National Institutes of Health (AIDS Research and Reference Reagent Program, Bethesda, MD).
The ability of compounds to protect cells against HIV infection was measured by the […] dye reduction method, essentially as described (See Pauwels, R. Balzarini, J. Baba, M. Snoeck, R. Schols, D. Herdewijn, P. Desmyter, J. and De Clercq, E. 1988, “Rapid and automated tetrazolium-based colorimetric assay for the detection of anti-HIV compounds,”. J Virol. Methods., 20: 309-321 and Weislow, O. S. Kiser, R. Fine, D. L. Bader, J. Shoemaker, R. H. and Boyd, M. R. 1989. “New soluble-formazan assay for HIV-1 cytopathic effects: application to high-flux screening of synthetic and natural products for AIDS-antiviral activity”. J. Natl. Cancer Inst. 81:577-586). Subject cells were infected with test virus at an moi of 0.025 to 0.819 or mock infected with medium only and added at 2×10^4 cells per well into 96 well plates containing half-log dilutions of test compounds. Six days later, 50 μl of XTT (1 mg/ml XTT tetrazolium, […] phenazine methosulfate) was added to the wells and the plate was reincubated for four hours. Viability, as determined by the amount of XTT formazan produced, was quantified spectrophotometrically by absorbance at 450 nm. Data from CPE assays were expressed as the percent of formazan produced in compound-treated cells compared to formazan produced in wells of uninfected, compound-free cells. The fifty percent effective concentration (EC50) was calculated as the concentration of compound that effected an increase in the percentage of formazan production in infected, compound-treated cells to 50% of that produced by uninfected, compound-free cells. The 50% cytotoxicity concentration (CC50) was calculated as the concentration of compound that decreased the percentage of formazan produced in uninfected, compound-treated cells to 50% of that produced in uninfected, compound-free cells. The therapeutic index was calculated by dividing the cytotoxicity (CC50) by the antiviral activity (EC50).
Compounds were tested in phenotypic susceptibility assays at Virologic, Inc., (See Petropoulos C. J., Parkin N. T., Limoli K. L., Lie Y. S., Wrin T., Huang W., Tian H., Smith D., Winslow G. A., Capon D J, Whitcomb J M. 2000, “A novel phenotypic drug susceptibility assay for human immunodeficiency virus type 1,” Antimicrob Agents Chemother 44(4):920-928) or using the assay described here. MT-2 cells were infected with either HIV-1 NL4-3 or HIV-1 NL4-3(I84V/L90M) and incubated in the presence of serial 0.5 log dilutions of test compounds. Three days later, culture supernatants were collected and virus production, as determined by p24 ELISA, was assayed. Percent inhibition was calculated as p24 concentration in compound-treated samples as compared to infected, compound-free controls. Inhibition of viral replication is determined by measuring reduction in HIV p24 present in the culture supernatant, using a Beckman-Coulter p24 HIV-1 Ag EIA kit and following the supplied protocol. Absorbance is read on a MRX microplate reader (Dynex Technologies). The EC50 was calculated as the concentration of compound that effected a decrease in the p24 production by infected, compound-treated cells to 50% of that produced by infected, compound-free cells.

[3] = Human immunodeficiency virus 1, T-cell, read-out: EC50 (wt) (nm), wt virus
[4] = Human immunodeficiency virus 1, T-cell, read-out: Ave. EC50, average, unit inferred

Question: With `Cc1cnccc1CNC(=O)C1N(C(=O)[C@@H](O)[C@H](Cc2ccccc2)NC(=O)c2cccc(O)c2C)CC(F)(F)C1(C)C` (stereo partly shown) as the compound, how does the Ki ([1]; read-out: Ki (nm)) read?
Answer: < 0.1 nM

Question: And the EC50 [2, 3]?
Answer: 8 nM

Question: `Cc1c(O)cccc1C(=O)N[C@@H](Cc1ccccc1)[C@H](O)C(=O)N1COC(C)(C)[C@H]1C(=O)NC1CCc2ccccc21` (stereo partly shown) was tested. Which Ki ([1]; read-out: Ki (nm)) did it give?
Answer: < 0.1 nM

Question: What about the EC50 [2, 3] of the same compound?
Answer: 33 nM

Question: With `Cc1cc(O)c(C)c(C(=O)N[C@@H](Cc2ccccc2)[C@H](O)C(=O)N2COC(C)(C)[C@H]2C(=O)NC2CCc3ccccc32)c1` (stereo partly shown) as the compound, how does the Ki ([1]; read-out: Ki (nm)) read?
Answer: < 0.1 nM

Question: And the EC50 [2, 3]?
Answer: 61 nM

Question: Which Ki ([1]; read-out: Ki (nm)) does the source give for `CCCCNC(=O)[C@H]1N(C(=O)[C@@H](O)[C@H](Cc2ccccc2)NC(=O)c2cc(C)cc(O)c2C)CC(F)(F)C1(C)C` here?
Answer: < 0.1 nM

Question: What about the EC50 [2, 3] of the same compound?
Answer: 23 nM

Question: Which Ki ([1]; read-out: Ki (nm)) does the source give for `Cc1cc(O)c(C)c(C(=O)N[C@@H](Cc2ccccc2)[C@H](O)C(=O)N2CC(F)(F)C(C)(C)[C@H]2C(=O)NCc2ccncc2C)c1` here?
Answer: < 0.1 nM

Question: And the EC50 [2, 3]?
Answer: 34 nM

Question: `Cc1cc(O)c(C)c(C(=O)N[C@@H](Cc2ccccc2)[C@H](O)C(=O)N2CC(F)(F)C(C)(C)[C@H]2C(=O)NCc2ccccn2)c1` was tested. Which Ki ([1]; read-out: Ki (nm)) did it give?
Answer: < 0.1 nM

Question: And the EC50 [2, 3]?
Answer: 61 nM

Question: `CC[C@H](C)CNC(=O)[C@H]1N(C(=O)[C@@H](O)[C@H](Cc2ccccc2)NC(=O)c2cc(C)cc(O)c2C)CC(F)(F)C1(C)C` was tested. Which Ki ([1]; read-out: Ki (nm)) did it give?
Answer: < 0.1 nM

Question: And the EC50 [2, 3]?
Answer: 7.5 nM

Question: `C=CCNC(=O)C1N(C(=O)[C@@H](O)[C@H](Cc2cccc(F)c2)NC(=O)c2cccc(O)c2C)CC(F)(F)C1(C)C` (stereo partly drawn) [Example D10, (R)-3-((2S,3R)-4,4-Difluoro-1-[4-(3-fluoro-phenyl)-2-hydroxy-3-(3-hydroxy-2-methyl-benzoylamino)-butyryl])-3,3-dimethyl-pyrrolidine-2-carboxylic acid allylamide] was tested. Which Ki ([1]; average, read-out: Ave. Ki) did it give?
Answer: < 0.1 nM

Question: And the EC50 [2, 4]?
Answer: 16 nM

Question: For `Cc1c(O)cccc1C(=O)N[C@@H](Cc1cccc(F)c1)[C@H](O)C(=O)N1CC(F)(F)C(C)(C)[C@H]1C(=O)NCC(C)C` [Example D11, (S)-4,4-Difluoro-1-[(2S,3S)-4-(3-fluoro-phenyl)-2-hydroxy-3-(3-hydroxy-2-methyl-benzoylamino)-butyryl]-3,3-dimethyl-pyrrolidine-2-carboxylic acid isobutyl-amide], which Ki ([1]; average, read-out: Ave. Ki) is on record?
Answer: < 0.1 nM

Question: What about the EC50 [2, 4] of the same compound?
Answer: 13 nM

Question: Which results are given for `C=CCNC(=O)[C@H]1N(C(=O)[C@@H](O)[C@H](Cc2ccccc2)NC(=O)c2cc(C)cc(O)c2C)CSC1(C)C` [Example D12, (R)-3-[(2S,3S)-2-Hydroxy-3-(3-hydroxy-2,5-dimethyl-benzoylamino)-4-phenyl-butyryl]-5,5-dimethyl-thiazolidine-4-carboxylic acid allylamide]?
Answer: Ki ([1]; average, read-out: Ave. Ki): 0.7 nM; EC50 [2, 4]: 16 nM

Question: Which Ki ([1]; average, read-out: Ave. Ki) does the source give for `C=CCNC(=O)[C@H]1N(C(=O)[C@@H](O)[C@H](Cc2ccccc2)NC(=O)c2cc(C)cc(O)c2C)CC(F)(F)C1(C)C` [Example D13, (S)-4,4-Difluoro-1-[(2S,3S)-2-hydroxy-3-(3-hydroxy-2,5-dimethyl-benzoylamino)-4-phenyl-butyryl]-3,3-dimethyl-pyrrolidine-2-carboxylic acid allylamide] here?
Answer: < 0.1 nM

Question: And the EC50 [2, 4]?
Answer: 17 nM

Question: For `Cc1cc(O)c(C)c(C(=O)N[C@@H](Cc2ccccc2)[C@H](O)C(=O)N2CC(F)(F)C(C)(C)[C@H]2C(=O)NCC(F)(F)F)c1` [Example D16, (S)-4,4-Difluoro-1-[(2S,3S)-2-hydroxy-3-(3-hydroxy-2,5-dimethyl-benzoylamino)-4-phenyl-butyryl]-3,3-dimethyl-pyrrolidine-2-carboxylic acid (2,2,2-trifluoro-ethyl)-amide], which Ki ([1]; average, read-out: Ave. Ki) is on record?
Answer: < 0.1 nM

Question: And the EC50 [2, 4]?
Answer: 18 nM

Question: Which Ki ([1]; average, read-out: Ave. Ki) does the source give for `CCNC(=O)[C@H]1N(C(=O)[C@@H](O)[C@H](Cc2ccccc2)NC(=O)c2cc(C)cc(O)c2C)CC(F)(F)C1(C)C` [Example D17, (S)-4,4-Difluoro-1-[(2S,3S)-2-hydroxy-3-(3-hydroxy-2,5-dimethyl-benzoylamino)-4-phenyl-butyryl]-3,3-dimethyl-pyrrolidine-2-carboxylic acid ethylamide] here?
Answer: < 0.1 nM

Question: And the EC50 [2, 4]?
Answer: 66 nM

Question: `CC[C@H](C)CNC(=O)[C@H]1N(C(=O)[C@@H](O)[C@H](Cc2ccccc2)NC(=O)c2cccc(O)c2C)CC(F)(F)C1(C)C` [Example D18, (S)-4,4-Difluoro-1-[(2S,3S)-2-hydroxy-3-(3-hydroxy-2-methyl-benzoylamino)-4-phenyl-butyryl]-3,3-dimethyl-pyrrolidine-2-carboxylic acid ((2S)-2-methyl-butyl)-amide] was tested. Which Ki ([1]; average, read-out: Ave. Ki) did it give?
Answer: < 0.1 nM

Question: What about the EC50 [2, 4] of the same compound?
Answer: 10 nM

Question: Which results are given for `C=CCNC(=O)C1N(C(=O)[C@@H](O)[C@H](Cc2cccc(F)c2)NC(=O)c2cccc(O)c2C)CC(F)(F)C1(C)C` (stereo partly shown) [drawing 101]?
Answer: Ki ([1]; read-out: Ki (nm)): < 0.1 nM; EC50 [2, 3]: 16 nM

Question: For `Cc1cc(O)c(C)c(C(=O)N[C@@H](Cc2ccccc2)[C@H](O)C(=O)N2CC(F)(F)C(C)(C)[C@H]2C(=O)NCC(F)(F)F)c1` [drawing 119], which Ki ([1]; read-out: Ki (nm)) is on record?
Answer: < 0.1 nM

Question: And the EC50 [2, 3]?
Answer: 18 nM

Question: Which results are given for `Cc1c(O)cccc1C(=O)N[C@@H](Cc1cccc(F)c1)[C@H](O)C(=O)N1CC(F)(F)C(C)(C)[C@H]1C(=O)NCC(C)(C)C` [drawing 136]?
Answer: Ki ([1]; read-out: Ki (nm)): < 0.1 nM; EC50 [2, 3]: 13 nM

Question: For `Cc1c(O)cccc1C(=O)N[C@@H](Cc1cccc(F)c1)[C@H](O)C(=O)N1CC(F)(F)C(C)(C)[C@H]1C(=O)NCC(C)(C)C` [drawing 137], which Ki ([1]; read-out: Ki (nm)) is on record?
Answer: < 0.1 nM

Question: And the EC50 ([2]; read-out: EC50 (wt) (nm), wt virus)?
Answer: 8.8 nM

Question: `CCNC(=O)[C@H]1N(C(=O)[C@@H](O)[C@H](Cc2ccccc2)NC(=O)c2cc(C)cc(O)c2C)CC(F)(F)C1(C)C` [drawing 141] was tested. Which Ki ([1]; read-out: Ki (nm)) did it give?
Answer: < 0.1 nM

Question: What about the EC50 [2, 3] of the same compound?
Answer: 37 nM

Question: For `CC[C@H](C)CNC(=O)[C@H]1N(C(=O)[C@@H](O)[C@H](Cc2ccccc2)NC(=O)c2cccc(O)c2C)CC(F)(F)C1(C)C` [drawing 143], which Ki ([1]; read-out: Ki (nm)) is on record?
Answer: < 0.1 nM

Question: What about the EC50 [2, 3] of the same compound?
Answer: 11 nM
